Results from patent US20140135310A1, “SULPHONAMIDE DERIVATIVES OF ALICYCLIC AMINES FOR THE TREATMENT OF CENTRAL NERVOUS SYSTEM DISEASES” (Adamed Sp. z o.o., priority 2011, published 2014).

Legend:
[1] = tested on: α1 adrenergic receptors (rat cerebral cortex); experiment: Radioligand binding assay, adrenergic α1 receptors; conditions: test compound 1×10^−6 M
In short: (§1)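 Values derive from radioligand displacement, with non-specific binding defined by excess cold ligand and detection by scintillation. Hill-fit IC50s were converted to Ki via Cheng-Prusoff using Scatchard-derived Kd; percent inhibition of control specific binding also reported.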

receptors D4.4 = target: T1, receptors D4.4 (Homo sapiens, UniProt P21917); experiment: Radioligand binding assay, dopaminergic D4 (D4.4) receptors; conditions: test compound 1×10^−6 M
T1 sequence (P21917 1-419): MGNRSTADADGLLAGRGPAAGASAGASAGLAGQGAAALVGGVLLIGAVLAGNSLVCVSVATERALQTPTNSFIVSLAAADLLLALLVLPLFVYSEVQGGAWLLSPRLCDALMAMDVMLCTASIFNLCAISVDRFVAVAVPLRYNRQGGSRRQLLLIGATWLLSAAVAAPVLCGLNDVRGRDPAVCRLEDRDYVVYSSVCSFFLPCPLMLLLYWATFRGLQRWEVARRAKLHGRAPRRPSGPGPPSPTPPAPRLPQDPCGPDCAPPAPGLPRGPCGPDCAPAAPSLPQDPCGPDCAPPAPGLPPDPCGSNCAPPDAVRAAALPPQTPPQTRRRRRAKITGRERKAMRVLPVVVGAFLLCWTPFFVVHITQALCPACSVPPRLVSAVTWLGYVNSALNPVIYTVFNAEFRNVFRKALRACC
In short: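 Scintillation read-out. Specific = total − nonspecific (excess cold ligand). Data as % of control specific binding / % inhibition; IC50 by Hill fit; Ki = IC50/(1+L/KD), KD from Scatchard plot.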

[2] = target: T2, 5-HT1A receptor (rat hippocampus) (Rattus norvegicus, UniProt P19327); experiment: Radioligand binding assay, serotoninergic 5-HT1A receptors; conditions: binding assay result in %, Table 5a;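 also: test compound at 1 µM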
T2 construct: hippocampus; from tissue; host or cells: rat hippocampus
T2 sequence (P19327 1-422): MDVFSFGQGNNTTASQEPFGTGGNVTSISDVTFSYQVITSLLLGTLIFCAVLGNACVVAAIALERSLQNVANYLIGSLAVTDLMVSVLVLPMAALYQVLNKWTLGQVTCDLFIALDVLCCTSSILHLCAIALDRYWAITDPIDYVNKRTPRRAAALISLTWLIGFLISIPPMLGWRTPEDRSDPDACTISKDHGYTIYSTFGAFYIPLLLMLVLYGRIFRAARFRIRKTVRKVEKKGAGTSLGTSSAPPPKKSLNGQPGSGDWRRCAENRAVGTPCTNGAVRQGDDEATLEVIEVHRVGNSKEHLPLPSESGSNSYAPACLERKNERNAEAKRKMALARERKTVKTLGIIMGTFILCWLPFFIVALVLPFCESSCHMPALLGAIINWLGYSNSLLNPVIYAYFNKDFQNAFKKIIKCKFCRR

M3 muscarinic receptors = target: T3, M3 muscarinic receptors (Homo sapiens, UniProt P20309); experiment: Radioligand binding assay, muscarinic M3 receptors; conditions: test compound 1×10^−6 M
T3 construct: expressed in transfected cells; host or cells: CHO cells
T3 sequence (P20309 whole entry): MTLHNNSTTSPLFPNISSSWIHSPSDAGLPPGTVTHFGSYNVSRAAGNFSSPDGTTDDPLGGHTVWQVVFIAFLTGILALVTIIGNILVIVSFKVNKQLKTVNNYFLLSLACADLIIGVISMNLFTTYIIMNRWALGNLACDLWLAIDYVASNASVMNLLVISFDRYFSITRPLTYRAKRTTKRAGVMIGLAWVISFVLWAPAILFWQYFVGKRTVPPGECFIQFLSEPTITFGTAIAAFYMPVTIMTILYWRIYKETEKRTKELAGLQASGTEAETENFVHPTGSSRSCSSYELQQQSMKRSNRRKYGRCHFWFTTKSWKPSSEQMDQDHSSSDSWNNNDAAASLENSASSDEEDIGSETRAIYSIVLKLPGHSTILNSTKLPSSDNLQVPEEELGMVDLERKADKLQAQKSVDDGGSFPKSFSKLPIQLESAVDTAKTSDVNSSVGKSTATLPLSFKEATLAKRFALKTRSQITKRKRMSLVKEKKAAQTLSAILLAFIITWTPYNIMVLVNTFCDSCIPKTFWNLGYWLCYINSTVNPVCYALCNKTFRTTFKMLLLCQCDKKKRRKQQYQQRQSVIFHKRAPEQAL
In short: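 Radioligand competition binding, detected by scintillation counting; non-specific binding defined with excess unlabelled ligand. Results given as % inhibition of control specific binding; IC50 from Hill-equation fit of competition curves, Ki via Cheng-Prusoff with radioligand KD from Scatchard plot.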

5-HT2A receptor = target: T4, 5-HT2A receptor (Homo sapiens, UniProt P28223); experiment: Radioligand binding assay, serotoninergic 5-HT2A receptors; conditions: for inhibition at 1 µM / 5-HT2A [%]: binding assay result in %, Table 5a; for Ki: read-out: Inhibition constants Ki, 5-HT2A
T4 construct: purchased PerkinElmer
T4 sequence (P28223 whole entry): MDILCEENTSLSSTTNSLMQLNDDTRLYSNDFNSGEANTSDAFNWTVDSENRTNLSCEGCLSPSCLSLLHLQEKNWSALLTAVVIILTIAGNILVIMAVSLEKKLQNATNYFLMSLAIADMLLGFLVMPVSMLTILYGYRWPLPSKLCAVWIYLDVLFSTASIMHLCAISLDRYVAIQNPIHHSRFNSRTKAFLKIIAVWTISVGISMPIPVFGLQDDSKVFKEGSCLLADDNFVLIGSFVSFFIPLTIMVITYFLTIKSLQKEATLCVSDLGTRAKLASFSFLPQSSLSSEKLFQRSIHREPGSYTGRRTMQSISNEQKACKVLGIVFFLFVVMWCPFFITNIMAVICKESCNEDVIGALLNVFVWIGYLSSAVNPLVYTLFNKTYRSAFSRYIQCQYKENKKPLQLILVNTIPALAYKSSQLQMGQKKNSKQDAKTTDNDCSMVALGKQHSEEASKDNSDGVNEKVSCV
In short: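 Competition curves from scintillation-counted specific binding (total minus binding with excess unlabelled ligand) were Hill-fitted to give IC50, converted to Ki via Cheng-Prusoff using Scatchard-derived Kd.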

σ receptors = experiment: Radioligand binding assay, σ receptors; conditions: rat cerebral cortex, [3H]DTG 8 nM
In short: as §1

5-HT7 receptor = target: T5, 5-HT7 receptor (Homo sapiens, UniProt P34969); experiment: Radioligand binding assay, serotoninergic 5-HT7 receptors; conditions: binding assay result in %, Table 5a;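 also: test compound at 1 µM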
T5 construct: purchased PerkinElmer
T5 sequence (P34969 whole entry): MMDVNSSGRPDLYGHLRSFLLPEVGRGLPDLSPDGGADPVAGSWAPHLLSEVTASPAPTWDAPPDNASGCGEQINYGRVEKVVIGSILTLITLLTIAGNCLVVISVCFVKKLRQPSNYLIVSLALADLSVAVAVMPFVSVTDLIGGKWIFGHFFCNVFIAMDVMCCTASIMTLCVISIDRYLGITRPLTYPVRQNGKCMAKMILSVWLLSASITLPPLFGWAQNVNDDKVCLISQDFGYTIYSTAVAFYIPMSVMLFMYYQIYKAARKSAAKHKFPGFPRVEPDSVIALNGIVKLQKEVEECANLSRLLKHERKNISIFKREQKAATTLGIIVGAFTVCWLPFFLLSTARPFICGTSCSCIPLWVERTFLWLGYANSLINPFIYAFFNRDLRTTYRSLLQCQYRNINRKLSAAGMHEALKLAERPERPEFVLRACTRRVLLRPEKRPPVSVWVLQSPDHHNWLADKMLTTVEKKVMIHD
In short: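 Ki values used the Cheng–Prusoff equation, with KD from Scatchard analysis, applied to IC50 from Hill fits of human 5-HT7 radioligand competition curves. Bound radioligand was counted by scintillation, and excess unlabelled ligand set the non-specific binding.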

[3] = target: T6, H1 histaminergic receptors (Homo sapiens, UniProt P35367); experiment: Radioligand binding assay, histaminergic H1 receptors; conditions: human recombinant (HEK-293 cells), [3H]pyrilamine 1 nM
T6 construct: expressed in transfected cells; host or cells: HEK-293 cells
T6 sequence (P35367 whole entry): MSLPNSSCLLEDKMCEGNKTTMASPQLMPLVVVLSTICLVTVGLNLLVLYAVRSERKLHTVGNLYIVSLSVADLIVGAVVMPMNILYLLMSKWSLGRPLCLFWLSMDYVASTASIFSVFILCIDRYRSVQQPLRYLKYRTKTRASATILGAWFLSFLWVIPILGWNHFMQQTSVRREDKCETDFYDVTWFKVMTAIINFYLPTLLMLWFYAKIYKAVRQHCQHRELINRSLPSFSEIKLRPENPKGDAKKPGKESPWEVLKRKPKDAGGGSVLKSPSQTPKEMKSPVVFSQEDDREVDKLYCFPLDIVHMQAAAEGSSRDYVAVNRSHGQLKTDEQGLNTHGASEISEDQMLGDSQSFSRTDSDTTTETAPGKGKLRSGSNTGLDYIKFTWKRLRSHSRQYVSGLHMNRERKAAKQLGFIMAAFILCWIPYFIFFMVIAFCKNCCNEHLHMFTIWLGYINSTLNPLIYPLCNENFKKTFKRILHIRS
In short: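 Competition binding at human H1 receptors; specific binding taken as total minus non-specific binding in excess unlabelled ligand, scintillation read-out. IC50 from Hill-equation fit of competition curves; Ki by Cheng-Prusoff using radioligand concentration and Kd (from Scatchard plot).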

Row | Structure (SMILES) | α1 [%] [1] | inhibition at 1 µM (receptors D4.4) | inhibition at 1 µM [2] | inhibition at 1 µM (M3 muscarinic receptors) | inhibition at 1 µM (5-HT2A receptor) | σ [%] (σ receptors) | inhibition at 1 µM (5-HT7 receptor) | inhibition at 1 µM [3] | D4.4 [%] (receptors D4.4) | 5-HT1A [%] [2] | M3 [%] (M3 muscarinic receptors) | 5-HT2A [%] (5-HT2A receptor) | 5-HT7 [%] (5-HT7 receptor) | H1 [%] [3] | Ki (5-HT2A receptor)
1 | O=S(=O)(NC1CCN(CCCc2c[nH]c3ccc(Cl)cc23)C1)c1cccc(Cl)c1 (stereo not shown) [Compound 84, 3-Chloro-N-[1-[3-(5-chloro-1H-indol-3-yl)propyl]pyrrolidin-3-yl]benzenesulphonamide] | 51% | 94% | 99% | 3% | 78% | 59% | 98% | 79% | – | – | – | – | – | – | –
2 | O=S(=O)(NC1CN(CCOc2cccc3c2OCCO3)C1)c1cccc(F)c1 [Compound 89, N-[1-[2-(2,3-Dihydro-1,4-benzodioxan-8-yloxy)ethyl]azetidin-3-yl]-3-fluoro-benzenesulphonamide] | 45% | – | – | – | – | 24% | – | – | 22% | 98% | −6% | 74% | 96% | 3% | –
3 | O=S(=O)(NC1CN(CCOc2cccc3c2OCCO3)C1)c1ccc(Cl)cc1 [Compound 92, 4-Chloro-N-[1-[2-(2,3-dihydro-1,4-benzodioxan-8-yloxy)ethyl]azetidin-3-yl]benzene-sulphonamide] | 47% | – | – | – | – | 15% | – | – | 35% | 100% | 4% | 60% | 99% | 6% | –
4 | Cc1cccc(S(=O)(=O)NC2CN(CCOc3cccc4c3OCCO4)C2)c1 [Compound 93, N-[1-[2-(2,3-Dihydro-1,4-benzodioxan-8-yloxy)ethyl]azetidin-3-yl]-3-methyl-benzenesulphonamide] | 52% | – | – | – | – | 35% | – | – | 39% | 98% | 1% | 72% | 99% | 34% | –
5 | CC1(C)Cc2cccc(OCCN3CCC(NS(=O)(=O)c4cccc(O)c4)CC3)c2O1 [Compound 109, N-[1-[2-[(2,2-Dimethyl-3H-benzofuran-7-yl)oxy]ethyl]-4-piperidine]-3-hydroxy-benzenesulphonamide] | 44% | – | – | – | – | 39% | – | – | 69% | 96% | 3% | 95% | 99% | 65% | –
6 | CC1(C)Cc2cccc(OCCN3CCC(NS(=O)(=O)c4ccc5ccccc5c4)CC3)c2O1 [Compound 110, N-[1-[2-[(2,2-Dimethyl-3H-benzofuran-7-yl)oxy]ethyl]-4-piperidine]naphthalene-2-sulphonamide] | 45% | – | – | – | – | 56% | – | – | 42% | 95% | −7% | 91% | 99% | 52% | –
7 | O=S(=O)(NC1CCN(CCOc2cccc3ccccc23)C1)c1cccc(O)c1 (stereo not shown) [Compound 115, 3-Hydroksy-N-[1-[2-(1-naphthyloxy)ethyl]pyrrolidin-3-yl]benzenesulphonamide] | 24% | – | – | – | – | 69% | – | – | 55% | 100% | 13% | 99% | 98% | 72% | –
8 | O=S(=O)(NCC1CN(CCCc2noc3cc(F)ccc23)C1)c1ccc(-c2ccccc2)cc1 [Compound 135, N-[[1-[3-(6-Fluoro-1,2-benzoxazol-3-yl)propyl]azetidin-3-yl]methyl]-4-phenyl-benzenesulphonamide] | 88% | 60% | 77% | 19% | 99% | 94% | 97% | 79% | – | – | – | – | – | – | –
9 | CC(C)(C)c1ccc(S(=O)(=O)NCC2CN(CCOc3cccc4c3OCCO4)C2)cc1 [Compound 181, 4-tert-Butyl-N-[[1-[2-(2,3-dihydro-1,4-benzodioxin-5-yloxy)ethyl]azetidin-3-yl]methyl]benzenesulphonamide] | 50% | 64% | 98% | 0% | 89% | 75% | 92% | 27% | – | – | – | – | – | – | –
10 | O=S(=O)(NCC1CN(CCOc2cccc3c2OCCO3)C1)c1ccc(Cl)c(Cl)c1 [Compound 183, 3,4-Dichloro-N-[[1-[2-(2,3-dihydro-1,4-benzodioxin-5-yloxy)ethyl]azetidin-3-yl]methyl]benzenesulphonamide] | 85% | 80% | 98% | 13% | 94% | 94% | 102% | 42% | – | – | – | – | – | – | –
11 | O=S(=O)(NCC1CN(CCOc2cccc3c2OCCO3)C1)c1cc2ccccc2o1 [Compound 186, N-[[1-[2-(2,3-Dihydro-1,4-benzodioxin-5-yloxy)ethyl]azetidin-3-yl]methyl]-benzofuran-2-sulphonamide] | 80% | 55% | 98% | -9% | 87% | 84% | 97% | 17% | – | – | – | – | – | – | –
12 | O=S(=O)(N[C@@H]1CCN(CCCc2noc3cc(F)ccc23)C1)c1cc2ccc(Cl)cc2s1 [Compound 198, 6-Chloro-N-[(3R)-1-[3-(6-fluoro-1,2-benzoxazol-3-yl)propyl]pyrrolidin-3-yl]benzothiophene-2-sulphonamide] | 76% | 48% | 45% | 37% | – | 86% | 93% | 81% | – | – | – | – | – | – | 0.7 nM
13 | O=S(=O)(N[C@H]1CCN(CCCc2noc3cc(F)ccc23)C1)c1cc2ccc(Cl)cc2s1 [Compound 199, 6-Chloro-N-[(3S)-1-[3-(6-fluoro-1,2-benzoxazol-3-yl)propyl]pyrrolidin-3-yl]benzothiophene-2-sulphonamide] | 66% | 69% | 38% | 38% | – | 80% | 94% | 58% | – | – | – | – | – | – | 0.7 nM
14 | Cc1c(S(=O)(=O)N[C@H]2CCN(CCCc3noc4cc(F)ccc34)C2)sc2ccc(Cl)cc12 [Compound 205, 5-Chloro-N-[(3S)-1-[3-(6-fluoro-1,2-benzoxazol-3-yl)propyl]pyrrolidin-3-yl]-3-methyl-benzothiophene-2-sulphonamide] | 71% | 73% | 63% | 3% | – | 92% | 98% | 50% | – | – | – | – | – | – | 1.6 nM
